Assay results as given in patent US6403807B1, “Bridged fluorescent dyes, their preparation and their use in assays” (SurroMed, Inc., priority 1999, dated 2002).

Experiments:
[1] = UV-Visible absorption spectra of the dyes; type: physicochemical
Description: (§1) UV-Visible absorption spectra were recorded on Shimadzu UV-2401PC Spectrophotometer, while fluorescence measurements were performed Spex-Fluorlog2 Fluorometer (Instrument S.A. Inc.).
(§2) The spectral properties of the dyes of the previous Examples were measured. […] Other materials absorbed at the […] krypton laser wavelength.

[2] = Fluorescence measurements (excitation/emission) of the dyes; type: physicochemical
Description: as §1, §2

With `CC1(C)C2=[N+](CCCCCCCCCCCCN3/C(=C/C=C/C=C/C=C/2)C(C)(C)c2ccccc23)c2ccccc21.[Br-]` [Dye 21, Dodecanyl Bridged Indoleninium Heptamethine Cyanine Dye] the “δmax (absorption maximum)” value ([1]; CH2Cl2) was 760 nm and the “δem (emission wavelength)” value ([2]; CH2Cl2) was 790 nm.

In the case of `CC1(C)C2=[N+](CCCCCC(=O)Nc3cc(cc(C(=O)O)c3)NC(=O)CCCCCN3/C(=C/C=C/C=C/2)C(C)(C)c2cc(S(=O)(=O)O)ccc23)c2ccc(S(=O)(=O)[O-])cc21` [Dye 16, Bridged Pentamethine Indoleninium Cyanine Dye], the “e (extinction coefficient at δmax)” value ([1]; PBS buffer) is reported as 250,000, the “δmax (absorption maximum)” value ([1]; PBS buffer) is reported as 648 nm and the “δem (emission wavelength)” value ([2]; PBS) is reported as 674 nm. The “δex (excitation wavelength)” value ([2]; PBS) was 648 nm.

With `CC1(C)C2=[N+](CCCCCCCCCCCCN3/C(=C/C4=C([O-])C(=C/2)/C4=O)C(C)(C)c2ccccc23)c2ccccc21` [Dye 20, Dodecanyl Bridged Indoleninium Squaraine Dye] the “δmax (absorption maximum)” value ([1]; CH2Cl2) was 648 nm.

In the case of `CC1(C)C2=[N+](CCCCCCCCCCCCN3/C(=C/C=C/C=C/2)C(C)(C)c2ccccc23)c2ccccc21.[Br-]` [Dye 19], the “δmax (absorption maximum)” value ([1]; CH2Cl2) is reported as 656 nm and the “δem (emission wavelength)” value ([2]; CH2Cl2) is reported as 674 nm.

With `CC1(C)C2=[N+](CCCCCC(=O)Nc3cc(cc(C(=O)O)c3)NC(=O)CCCCCN3/C(=C/C=C/2)C(C)(C)c2cc(S(=O)(=O)[O-])ccc23)c2ccc(S(=O)(=O)O)cc21` [Dye 27, Bridged Trimethine Indolenium Cyanine Dye] the “δmax (absorption maximum)” value ([1]; solvent not stated) was 563 nm.

For `CC1(C)C2=[N+](CCCCCC(=O)Nc3cc(cc(C(=O)O)c3)NC(=O)CCCCCN3/C(=C/C=C/C=C/C=C/2)C(C)(C)c2cc(S(=O)(=O)O)ccc23)c2ccc(S(=O)(=O)[O-])cc21` [Dye 17, Bridged Heptamethine Indoleninium Cyanine Dye], the “δmax (absorption maximum)” value ([1]; PBS buffer) was 748 nm, the “δem (emission wavelength)” value ([2]; PBS) was 780 nm and the “δex (excitation wavelength)” value ([2]; PBS) was 748 nm.

In the case of `CC1(C)C2=CC3=C(S)/C(=C\C4=[N+](CCCCCC(=O)Nc5cc(cc(C(=O)O)c5)NC(=O)CCCCCN2c2ccc(S(=O)(=O)O)cc21)c1ccc(S(=O)(=O)[O-])cc1C4(C)C)C3=S` [Dye 28, Bridged Thiosquarylium Dye], the “δmax (absorption maximum)” value ([1]; solvent not stated) is reported as 649 nm.

In the case of `CC1(C)C2=[N+](CCCCCCCCCCCCN3/C(=C/C=C/C=C/2)C(C)(C)c2c3ccc3ccccc23)c2ccc3ccccc3c21.[Br-]` [Dye 23, Dodecanyl Bridged Benzindoleninium Pentamethine Cyanine dye], the “δmax (absorption maximum)” value ([1]; CH2Cl2) is reported as 696 nm and the “δem (emission wavelength)” value ([2]; CH2Cl2) is reported as 716 nm.

For `CC1(C)C2=[N+](CCCCCCCCCCCCN3/C(=C/C=C/C=C/C=C/2)C(C)(C)c2c3ccc3ccccc23)c2ccc3ccccc3c21` [Dye 25, Dodecanyl Bridged Benzindoleninium Heptamethine Dye], the “δmax (absorption maximum)” value ([1]; CH2Cl2) was 800 nm and the “δem (emission wavelength)” value ([2]; CH2Cl2) was 820 nm.

In the case of `CC1(C)C2=[N+](CCCCCCCCCCCCN3/C(=C/C4=C([O-])C(=C/2)/C4=O)C(C)(C)c2c3ccc3ccccc23)c2ccc3ccccc3c21` [Dye 24, Dodecanyl Bridged Benzindoleninium Squaraine Dye], the “δmax (absorption maximum)” value ([1]; CH2Cl2) is reported as 671 nm and the “δem (emission wavelength)” value ([2]; CH2Cl2) is reported as 681 nm.
